Laboratory results taken from publication PMC11154582, “Modeling the Blood-Brain Barrier Permeability of Potential Heterocyclic Drugs via Biomimetic IAM Chromatography Technique Combined with QSAR Methodology” (Molecules, 2024).
Where two headings read alike, the source gives them in different places.

Tests used:
human cancer cells [1] = tested on: human cancer cells; set-up: method as in ref [3,9,10,13,18-21] (a number printed in a supplementary file, which may have a reference list of its own: not looked up in the article's list); settings: supplement ref [3,9,10,13,18-21]; cited from earlier work
[2] = Biomimetic IAM chromatography (log kw, IAM); assay type: physicochemical; settings: IAM.PC.DD2 column, buffered acetonitrile, pH 7.4, 25 °C, extrapolated to buffer
Description: High performance liquid chromatography (HPLC) measurements were performed on a Shimadzu Vp liquid chromatographic system (Shimadzu, Izabelin, Poland). This instrument was equipped with LC 10AT pump, SPD 10A ultraviolet-visible detector, SCL 10A system controller, CTO-10 AS chromatographic oven, and a Rheodyne injector valve with a 20 μL loop. As the stationary phase Regis IAM.PC.DD2 column, 100 × 4.6 mm i.d., 10 μm (Morton Grove, IL, USA) was applied.
Buffered acetonitrile mixtures were used as effluents. Acetonitrile concentration, expressed as a volume fraction, was varied within a range from 0.2 to 0.5, with a constant step of 0.1. The buffer was prepared from 0.01 mol L^−1 solutions of Na2HPO4 and citric acid, and a pH value of 7.4 was fixed before mixing with an organic modifier. The flow rate was 1.3 mL min^−1. Each compound sample was dissolved in acetonitrile to obtain a concentration of 0.005 mg mL^−1, and each solute peak was detected under ultraviolet light at a wavelength of λmax = 254 nm. Each measurement was performed at a constant temperature (25 °C) at least three times. The dead time values were measured from sodium chloride peaks.
From among 126 heterocyclic compounds evaluated in this work (Table 1), 89 structures have been investigated previously on the IAM column: these are molecules from groups III, IV, V, VI, VII, VIII, IX, XI, XIII, and XV [21, 22, 23]. The remaining ones, i.e., 37 compounds from groups I, II, X, XII and XIV, were tested in this study for the first time using the biomimetic IAM chromatographic technique. To calculate the log kw values (i.e., the logarithms of retention parameter in the buffer as the mobile phase), the retention parameters, logs k (k = (tr − t0)/t0; where tr is the solute retention time, and t0 is a dead time), that were measured for all tested compounds, were used according to Soczewiński-Wachtmeister’s equation (Equation (5)): (5) log k=logtr−t0/t0=log kw−sφ where φ denotes the volume fraction of acetonitrile as organic modifier in the mobile phase, and kw means the retention parameter corresponding to buffer as the mobile phase. The log kw values were evaluated as linear regression coefficients (Table 2).

[3] = tested on: zebrafish embryos and larvae; set-up: method as in ref [18,20] (a number printed in a supplementary file, which may have a reference list of its own: not looked up in the article's list); settings: versus anticancer agent pemetrexed; supplement ref [18,20]; cited from earlier work
[4] = IAM column, cited from earlier work
human cancer cells [5] = tested on: human cancer cells; set-up: method as in ref [3-7,9-15,17-21] (a number printed in a supplementary file, which may have a reference list of its own: not looked up in the article's list); settings: supplement ref [3-7,9-15,17-21]; cited from earlier work
[6] = set-up: method as in ref [8,16] (a number printed in a supplementary file, which may have a reference list of its own: not looked up in the article's list); settings: supplement ref [8,16]; cited from earlier work
[7] = set-up: method as in ref [21,22] (a number printed in a supplementary file, which may have a reference list of its own: not looked up in the article's list); settings: supplement ref [21,22]; cited from earlier work
[8] = tested on: central nervous system of mice; set-up: method as in PMID 24157086; settings: preliminary tests, ref [21]; cited from earlier work
[9] = set-up: method as in ref [14] (a number printed in a supplementary file, which may have a reference list of its own: not looked up in the article's list); settings: supplement ref [14]; cited from earlier work
[10] = tested on: oxidatively-stressed erythrocytes; settings: supplement ref [4,19,26,30]; cited from earlier work

In the case of `Cc1cc(Cl)ccc1OCc1nnc2n1CCN2c1ccccc1` [Compound 8], the “mechanism of antiproliferative action: inducing DNA damage” value (human cancer cells [1]) is given as “DNA damage” and the “log kw, IAM” value [2] is given as 0.09.
In the case of `O=c1c(C(F)(F)F)nnc2n1CCN2c1ccccc1` [Compound 15], the “toxicity for zebrafish embryos and larvae compared with pemetrexed” value [3] is given as “lower” and the “log kw, IAM” value ([4]; ref [22]) is given as 0.94.
In the case of `Cc1ccccc1N1CCn2c1nnc(C(F)(F)F)c2=O` [Compound 16], the “toxicity for zebrafish embryos and larvae compared with pemetrexed” value [3] is given as “lower”, the “mechanism of antiproliferative action: promoting apoptotic caspases” value (shortened to “mechanism … promoting apoptotic caspases”) (human cancer cells [1]) is given as “promoting apoptotic caspases” and the “log kw, IAM” value ([4]; ref [22]) is given as 0.76.
For `COc1ccccc1N1CCn2c1nnc(C(F)(F)F)c2=O` [Compound 18], the “mechanism … promoting apoptotic caspases” value (human cancer cells [1]) is listed as “promoting apoptotic caspases” and the “log kw, IAM” value ([4]; ref [22]) is listed as 0.67.
In the case of `O=c1c(C(F)(F)F)nnc2n1CCN2c1ccccc1Cl` [Compound 19], the “mechanism … promoting apoptotic caspases” value (human cancer cells [1]) is given as “promoting apoptotic caspases” and the “log kw, IAM” value ([4]; ref [22]) is given as 0.88.
For `CC(C)c1nnc2n(c1=O)CCN2c1ccccc1Cl` [Compound 31], the “mechanism … promoting apoptotic caspases” value (human cancer cells [1]) is given as “promoting apoptotic caspases” and the “log kw, IAM” value ([4]; ref [22]) is given as 0.65.
For `CC(C)c1nnc2n(c1=O)CCN2c1ccc(Cl)cc1` [Compound 33], the “mechanism … promoting apoptotic caspases” value (human cancer cells [1]) is listed as “promoting apoptotic caspases” and the “log kw, IAM” value ([4]; ref [22]) is listed as 1.39.
In the case of `CC(C)c1nnc2n(c1=O)CCN2c1ccc(Cl)c(Cl)c1` [Compound 34], the “mechanism … promoting apoptotic caspases” value (human cancer cells [1]) is given as “promoting apoptotic caspases” and the “log kw, IAM” value ([4]; ref [22]) is given as 1.67.
For `CCOC(=O)c1nnc2n(c1=O)CCN2c1cccc(Cl)c1` [Compound 37], the “log kw, IAM” value ([4]; ref [22]) is given as 1.73 and the antitumor activity (human cancer cells [5]) is given as “antitumor”.
In the case of `CCOC(=O)c1nnc2n(c1=O)CCN2c1ccc(Cl)c(Cl)c1` [Compound 39], the “log kw, IAM” value ([4]; ref [22]) is listed as 3.36 and the antitumor activity (human cancer cells [5]) is listed as “antitumor”.
For `COC(=O)Cc1nnc2n(c1=O)CCN2c1ccc(C)cc1` [Compound 41], the “log kw, IAM” value ([4]; ref [23]) is given as 1.33 and the analgesic activity [6] is given as “analgesic”.
In the case of `COC(=O)Cc1nnc2n(c1=O)CCN2c1ccc(OC)cc1` [Compound 42], the “log kw, IAM” value ([4]; ref [23]) is listed as 0.81 and the analgesic activity [6] is listed as “analgesic”.
In the case of `CCOC(=O)Cc1nnc2n(c1=O)CCN2c1ccccc1` [Compound 45], the “mechanism of antiproliferative action: promoting apoptosis” value (“mechanism … promoting apoptosis” below) (human cancer cells [1]) is given as “apoptosis”, the “mechanism of antiproliferative action: promoting necrosis” value (“mechanism … promoting necrosis” for short) (human cancer cells [1]) is given as “necrosis” and the “log kw, IAM” value ([4]; ref [23]) is given as 1.21.
In the case of `CCOC(=O)Cc1nnc2n(c1=O)CCN2c1cccc(Cl)c1` [Compound 48], the “mechanism … promoting apoptosis” value (human cancer cells [1]) is listed as “apoptosis”, the “mechanism … promoting necrosis” value (human cancer cells [1]) is listed as “necrosis” and the “log kw, IAM” value ([4]; ref [23]) is listed as 2.05.
For `CCOC(=O)Cc1nnc2n(c1=O)CCN2c1ccc(Cl)c(Cl)c1` [Compound 50], the “mechanism … promoting apoptosis” value (human cancer cells [1]) is listed as “apoptosis”, the “mechanism … promoting necrosis” value (human cancer cells [1]) is listed as “necrosis” and the “log kw, IAM” value ([4]; ref [23]) is listed as 2.42.
In the case of `NNC(=O)c1nnc2n(c1=O)CCN2c1ccccc1` [Compound 51], the “log kw, IAM” value ([4]; ref [21]) is given as −0.14 and the analgesic activity [6] is given as “analgesic”.
In the case of `NNC(=O)c1nnc2n(c1=O)CCN2c1cccc(Cl)c1` [Compound 54], the “mechanism of antiproliferative action: inducing DNA damage” value (human cancer cells [1]) is listed as “DNA damage”, the “mechanism … promoting apoptosis” value (human cancer cells [1]) is listed as “apoptosis” and the “log kw, IAM” value ([4]; ref [21]) is listed as 0.41. The antitumor activity (human cancer cells [5]) was “antitumor”.
In the case of `NNC(=O)c1nnc2n(c1=O)CCN2c1ccc(Cl)c(Cl)c1` [Compound 55], the “log kw, IAM” value ([4]; ref [21]) is given as 0.69 and the antiradical activity [7] is given as “antiradical”.
In the case of `COc1ccc(N2CCn3c2nnc(CC(=O)NN)c3=O)cc1` [Compound 58], the “log kw, IAM” value [2] is given as −0.27 and the antiradical activity [7] is given as “antiradical”.
For `O=c1c(-c2cccs2)nnc2n1CCN2c1cccc(Cl)c1` [Compound 78], the “log kw, IAM” value [2] was 2.26.
With `O=c1c(-c2cccs2)nnc2n1CCN2c1ccc(Cl)cc1` [Compound 79] the “log kw, IAM” value [2] was 1.53.
In the case of `O=c1c(-c2cccs2)nnc2n1CCN2c1ccc(Cl)c(Cl)c1` [Compound 80], the “mechanism … promoting apoptosis” value (human cancer cells [1]) is given as “apoptosis”, the “mechanism … promoting necrosis” value (human cancer cells [1]) is given as “necrosis” and the “log kw, IAM” value [2] is given as 2.68.
In the case of `Cc1cccc(N2CCn3c2nnc(-c2ccccc2)c3=O)c1` [Compound 83], the analgesic activity [8] is given as “analgesic activity”, the toxicity [8] is given as “low toxicity” and the “log kw, IAM” value ([4]; ref [23]) is given as 2.26. For the same compound, the analgesic activity [6] was “analgesic”, the antimetastatic activity [9] was “antimetastatic” and the antihemolytic activity [10] was “antihemolytic”.
For `COc1ccc(N2CCn3c2nnc(-c2ccccc2)c3=O)cc1` [Compound 86], the “log kw, IAM” value ([4]; ref [23]) is listed as 1.71, the antitumor activity (human cancer cells [5]) is listed as “antitumor” and the antimetastatic activity [9] is listed as “antimetastatic”.
In the case of `O=c1c(-c2ccccc2)nnc2n1CCN2c1ccccc1Cl` [Compound 89], the analgesic activity [8] is listed as “analgesic activity”, the toxicity [8] is listed as “low toxicity” and the “log kw, IAM” value ([4]; ref [23]) is listed as 1.73. The analgesic activity [6] was “analgesic” and the antihemolytic activity [10] was “antihemolytic”.
For `O=c1c(-c2ccccc2)nnc2n1CCN2c1ccc(Cl)cc1` [Compound 91], the “log kw, IAM” value ([4]; ref [23]) is listed as 2.57 and the analgesic activity [6] is listed as “analgesic”.
For `O=c1c(-c2ccccc2)nnc2n1CCN2c1ccc(Cl)c(Cl)c1` [Compound 92], the “log kw, IAM” value ([4]; ref [23]) is listed as 3.26, the analgesic activity [6] is listed as “analgesic” and the antihemolytic activity [10] is listed as “antihemolytic”.
With `O=c1c(-c2ccc([N+](=O)[O-])cc2)nnc2n1CCN2c1ccccc1` [Compound 93] the “log kw, IAM” value [2] was 1.92.
In the case of `Cc1ccccc1N1CCn2c1nnc(-c1ccc([N+](=O)[O-])cc1)c2=O` [Compound 94], the “log kw, IAM” value [2] is reported as 2.52.
With `Cc1ccc(N2CCn3c2nnc(-c2ccc([N+](=O)[O-])cc2)c3=O)cc1` [Compound 95] the “log kw, IAM” value [2] was 1.83.
In the case of `COc1ccccc1N1CCn2c1nnc(-c1ccc([N+](=O)[O-])cc1)c2=O` [Compound 96], the “log kw, IAM” value [2] is reported as 1.78.
For `Cc1cccc(N2CCn3c2nnc(-c2ccc([N+](=O)[O-])cc2)c3=O)c1C` [Compound 97], the “log kw, IAM” value [2] was 1.78.
With `O=c1c(-c2ccc([N+](=O)[O-])cc2)nnc2n1CCN2c1ccccc1Cl` [Compound 98] the “log kw, IAM” value [2] was 2.16.
For `O=c1c(-c2ccc([N+](=O)[O-])cc2)nnc2n1CCN2c1cccc(Cl)c1` [Compound 99], the “log kw, IAM” value [2] was 2.02.
For `O=c1c(-c2ccc([N+](=O)[O-])cc2)nnc2n1CCN2c1ccc(Cl)cc1` [Compound 100], the “log kw, IAM” value [2] was 2.52.
For `O=c1c(-c2ccc([N+](=O)[O-])cc2)nnc2n1CCN2c1ccc(Cl)c(Cl)c1` [Compound 101], the “log kw, IAM” value [2] was 3.22.
For `O=c1c(Cc2ccccc2Cl)nnc2n1CCN2c1ccccc1` [Compound 103], the analgesic activity [8] is given as “analgesic activity”, the toxicity [8] is given as “low toxicity” and the “log kw, IAM” value ([4]; ref [23]) is given as 2.34. For the same compound, the analgesic activity [6] was “analgesic”.
For `Cc1ccc(N2CCn3c2nnc(Cc2ccccc2Cl)c3=O)cc1` [Compound 109], the analgesic activity [8] is listed as “analgesic activity”, the toxicity [8] is listed as “low toxicity” and the “log kw, IAM” value ([4]; ref [23]) is listed as 2.65. For the same compound, the analgesic activity [6] was “analgesic” and the antitumor activity (human cancer cells [5]) was “antitumor”.
In the case of `CCOc1ccc(N2CCn3c2nnc(Cc2ccccc2)c3=O)cc1` [Compound 112], the “log kw, IAM” value ([4]; ref [23]) is listed as 2.11 and the analgesic activity [6] is listed as “analgesic”.
In the case of `CCOc1ccc(N2CCn3c2nnc(Cc2ccccc2Cl)c3=O)cc1` [Compound 114], the analgesic activity [8] is given as “analgesic activity”, the toxicity [8] is given as “low toxicity” and the “log kw, IAM” value ([4]; ref [23]) is given as 2.51. For the same compound, the analgesic activity [6] was “analgesic” and the antitumor activity (human cancer cells [5]) was “antitumor”.
For `CCOc1ccc(N2CCn3c2nnc(Cc2ccc(Cl)cc2)c3=O)cc1` [Compound 116], the analgesic activity [8] is listed as “analgesic activity”, the toxicity [8] is listed as “low toxicity” and the “log kw, IAM” value ([4]; ref [23]) is listed as 2.72. For the same compound, the antitumor activity (human cancer cells [5]) was “antitumor”.
